Measurements reported in patent US6492350B2, “Chitin oligosaccharides and/or chitosan oligosaccharides for preventing or treating common cold or treating pain” (JDC (Hawaii) Inc., priority 2000, dated 2002).

Tests used:
[1] = in vivo, po; cited from earlier work
[2] = Clinical study of CCOS analgesia in volunteers with painful conditions (short-form McGill Pain Questionnaire); type: in vivo, human; details: patient
Description: This modification is a hybrid form utilizing both a Visual Analogue Scale rating pain from 0 (no pain) to 5 (excruciating) as well as a pain questionnaire rating the pain from 0 (no pain) to 3 (severe) along with the following descriptions:
To test the effectiveness of chitin chitosan oligosaccharide (CCOS) in providing satisfactory analgesia in both nociceptive and neuropathic pain, a clinical study was conducted with volunteers suffering from a variety of rather common painful conditions (see Table 11). Pain can be an extremely subjective phenomena; there is no laboratory or radiological test to measure its severity or indeed even its presence as described elsewhere p. 8). […] “There is a whole literature of validated, subjective tools that are absolutely reliable” (Melvin C. Gitlin, MD Professor of Anesthesiology, Tulane University School of Medicine and Director of the Pain Management Center at the Tulane University Hospital Clinic) The conditions of all of the volunteers in this study have been documented by physicians, in some cases more than one, and their pain substantiated. […] Our methods, utilizing human subjects is equally valid and acceptable (36). (see Modified McGill Pain form used as the basis to evaluate pain).

## Chitin
[1]
  absorbed orally: 20-40%

## CC(=O)Nc1ccc(O)cc1 [Tylenol, Acetaminophen]
[2]; low back pain secondary to strain, nociceptive, CCOS 400 mg STAT then 300 mg QID
  Degree of Pain Reduction: little or no effect

## CC(=O)Oc1ccccc1C(=O)O [ASA]
[2]; acute pharangitis, nociceptive (inflammatory), CCOS 150 mg STAT then 100 mg PRN
  Degree of Pain Reduction: no significant improvement
